# Entries after “also recorded” stand apart in the source; their conditions may differ.
# Legend:
# [1] = tested on: Aspergillus niger ATCC 16404; experiment: Antimicrobial preservative effectiveness organism challenge test (USP 24 / Ph. Eur. 5.0); format: cell-based; settings: A. niger, 7 days; 0.05 w/v % in Table 2 formulation, pH 7.5
# Procedure: (§1) Antimicrobial preservative effectiveness as set forth by the examples infra was determined using an organism challenge test according to the methods described in the United States Pharmacopoeia 24 (USP) for category 1A products, and in European Pharmacopoeia 5.0 (Ph. Eur.) for parenteral and ophthalmic preparations. […] The samples were then pulled at specified intervals to determine if the antimicrobial preservative system was capable of killing or inhibiting the propagation of organisms purposely introduced into the formulation. The rate or level of antimicrobial activity determines compliance with the USP and/or Ph. Eur. preservative efficacy standards for the cited categories of preparations.
# (§2) Relative to fungi, the USP standards require that the compositions maintain stasis (i.e., no growth) relative to the population of the initial inoculum over the entire 28 day test period. A category 1A product is an injection, or other parenteral including emulsions, otic, sterile nasal products and ophthalmic products made with aqueous bases or vehicles.
# (§3) The margin of error in calculating microorganism populations is generally accepted to be +/−0.5 logs. Accordingly, the term “stasis”, as utilized herein relative to the above-discussed USP standards, means that the initial population cannot increase by more than 0.5 log orders, relative to the initial population.
# (§4) As cited by Table 1, the Ph. […] Regarding fungi, the Ph.
# [2] = tested on: Candida albicans ATCC 10231; experiment: as above; format: cell-based
# Procedure: as §1, §2, §3, §4
# [3] = tested on: Escherichia coli ATCC 8739; experiment: as above; format: cell-based; settings: E. coli, 0.05 w/v % in Table 2 formulation, pH 7.5
# Procedure: as §1, §2, §3, §4
# [4] = tested on: Pseudomonas aeruginosa ATCC 9027; experiment: as above; format: cell-based; settings: P. aeruginosa, 0.05 w/v % in Table 2 formulation, pH 7.5
# Procedure: as §1, §2, §3, §4
# [5] = tested on: Staphylococcus aureus ATCC 6538; experiment: as above; format: cell-based; settings: S. aureus, pH 7.5
# Procedure: as §1, §2, §3, §4
# [6] = tested on: S. aureus, P. aeruginosa, E. coli, C. albicans and A. niger; experiment: Compliance with USP and/or Ph. Eur. preservative efficacy standards (Table 1); format: cell-based; settings: for meeting European Pharmacopoeia 5.0 (Ph. Eur. B) standards as sole preservative: without any other preservative
# Procedure: as §1, §2, §3, §4
# [7] = cited from earlier work
Compound,Log Order Reductions [1] [log order],"kill of Candida albicans ([2]; 0.05% composition, in 7 days)","Log Order Reductions ([2]; C. albicans, 7 days, 0.05 w/v % in Table 2 formulation, pH 7.5) [log order]",Log Order Reductions ([3]; 6 hours) [log order],Log Order Reductions ([3]; 24 hours) [log order],Log Order Reductions ([3]; 7 days) [log order],Log Order Reductions ([4]; 6 hours) [log order],Log Order Reductions ([4]; 24 hours) [log order],Log Order Reductions ([4]; 7 days) [log order],"Log Order Reductions ([5]; 6 hours, 0.05 w/v % in Table 2 formulation (propylene glycol 1.8, phosphate)) [log order]","Log Order Reductions ([5]; 24 hours, 0.05 w/v % in Table 2 formulation) [log order]","Log Order Reductions ([5]; 7 days, 0.05 w/v % in Table 2 formulation) [log order]","kill of both gram-negative and gram-positive bacteria ([6]; 0.05% composition, in six hours)",meeting European Pharmacopoeia 5.0 (Ph. Eur. B) standards as sole preservative [6],"meeting United States Pharmacopoeia 24 standards as sole preservative ([6]; without any other preservative or preservative aid, isotonic pH 7.5 formulation)",soluble in water up to [7],"solubility limited in aqueous solutions to ([7]; aqueous solutions, unless enhanced by another surfactant) [%]"
"CCCCCCCCN1CCCC1=O [N-Octyl-2-Pyrrolidone, N-octyl-2-pyrrolidone]",0.7,essentially complete kill,4.8,5.0,5.0,5.0,4.9,4.9,4.9,4.9,4.9,4.9,essentially complete kill,provided sufficient preservation to comply; also recorded: effective as a sole preservative,provided sufficient preservation to comply,up to 0.124%,–
CCCCCCCCCCCCN1CCCC1=O [N-dodecyl-2-pyrrolidone],–,–,–,–,–,–,–,–,–,–,–,–,–,requires a second anti-microbial agent; also recorded: insufficient as a sole agent for preservation,–,up to 0.002%,≤ 0.002
